Measurements from ChEMBL document CHEMBL5338754, “Identification of Binding Sites in the Nucleotide-Binding Domain of P-Glycoprotein for a Potent and Nontoxic Modulator, the Amine-Containing Monomeric Flavonoid FM04” (J Med Chem, 2023).

How the values were obtained:
[1] = biological target: ATP-dependent translocase ABCB1 (Homo sapiens, UniProt P08183, Q1193K); assay: Negative allosteric modulator activity at human P-gp Q1193K mutant expressed in HEK293FT cells assessed as increase in intracellular doxorubicin accumulation using doxorubicin as substrate at 1 uM incubated for 150 mins by microplate reader assay (reference value: 69.1 +/- 1 %); type: cell-based; conditions: 2.5 h
[2] = biological target: ATP-dependent translocase ABCB1 (Homo sapiens, UniProt P08183, G1114A); assay: Negative allosteric modulator activity at human P-gp G1114A mutant expressed in HEK293FT cells assessed as fold change in intracellular doxorubicin accumulation using doxorubicin as substrate at 1 uM incubated for 150 mins by microplate reader assay relative to DMSO; type: cell-based; conditions: 2.5 h
[3] = biological target: P-gp (ABCB1) Q1193N mutant (Homo sapiens, UniProt P08183, Q1193N); assay: Activation of P-gp ATPase activity in human P-gp Q1193N mutant expressed in HEK293FT cell microsomes assessed as fold change of ATPase activity at 20 uM incubated for 1 hr in presence of ATP by Glo-luminescence based microplate reader assay relative to DMSO; design: species or system Microsome; conditions: read-out: FC
[4] = biological target: ATP-dependent translocase ABCB1 (Homo sapiens, UniProt P08183, I1115F); assay: Negative allosteric modulator activity at human P-gp I1115F mutant expressed in HEK293FT cells assessed as reversal of P-gp mediated PTX resistance by measuring sensitivity fold change incubated for 5 days by MTS assay; type: cell-based; conditions: 120 h, time 5 day
[5] = biological target: ATP-dependent translocase ABCB1 (Homo sapiens, UniProt P08183, I1115L); assay: Negative allosteric modulator activity at human P-gp I1115L mutant expressed in HEK293FT cells assessed as fold change in intracellular doxorubicin accumulation using doxorubicin as substrate at 1 uM incubated for 150 mins by microplate reader assay relative to DMSO; type: cell-based; conditions: 2.5 h
Sequence of ATP-dependent translocase ABCB1 (Homo sapiens, UniProt P08183, I1115L) (P08183 whole entry I1115L): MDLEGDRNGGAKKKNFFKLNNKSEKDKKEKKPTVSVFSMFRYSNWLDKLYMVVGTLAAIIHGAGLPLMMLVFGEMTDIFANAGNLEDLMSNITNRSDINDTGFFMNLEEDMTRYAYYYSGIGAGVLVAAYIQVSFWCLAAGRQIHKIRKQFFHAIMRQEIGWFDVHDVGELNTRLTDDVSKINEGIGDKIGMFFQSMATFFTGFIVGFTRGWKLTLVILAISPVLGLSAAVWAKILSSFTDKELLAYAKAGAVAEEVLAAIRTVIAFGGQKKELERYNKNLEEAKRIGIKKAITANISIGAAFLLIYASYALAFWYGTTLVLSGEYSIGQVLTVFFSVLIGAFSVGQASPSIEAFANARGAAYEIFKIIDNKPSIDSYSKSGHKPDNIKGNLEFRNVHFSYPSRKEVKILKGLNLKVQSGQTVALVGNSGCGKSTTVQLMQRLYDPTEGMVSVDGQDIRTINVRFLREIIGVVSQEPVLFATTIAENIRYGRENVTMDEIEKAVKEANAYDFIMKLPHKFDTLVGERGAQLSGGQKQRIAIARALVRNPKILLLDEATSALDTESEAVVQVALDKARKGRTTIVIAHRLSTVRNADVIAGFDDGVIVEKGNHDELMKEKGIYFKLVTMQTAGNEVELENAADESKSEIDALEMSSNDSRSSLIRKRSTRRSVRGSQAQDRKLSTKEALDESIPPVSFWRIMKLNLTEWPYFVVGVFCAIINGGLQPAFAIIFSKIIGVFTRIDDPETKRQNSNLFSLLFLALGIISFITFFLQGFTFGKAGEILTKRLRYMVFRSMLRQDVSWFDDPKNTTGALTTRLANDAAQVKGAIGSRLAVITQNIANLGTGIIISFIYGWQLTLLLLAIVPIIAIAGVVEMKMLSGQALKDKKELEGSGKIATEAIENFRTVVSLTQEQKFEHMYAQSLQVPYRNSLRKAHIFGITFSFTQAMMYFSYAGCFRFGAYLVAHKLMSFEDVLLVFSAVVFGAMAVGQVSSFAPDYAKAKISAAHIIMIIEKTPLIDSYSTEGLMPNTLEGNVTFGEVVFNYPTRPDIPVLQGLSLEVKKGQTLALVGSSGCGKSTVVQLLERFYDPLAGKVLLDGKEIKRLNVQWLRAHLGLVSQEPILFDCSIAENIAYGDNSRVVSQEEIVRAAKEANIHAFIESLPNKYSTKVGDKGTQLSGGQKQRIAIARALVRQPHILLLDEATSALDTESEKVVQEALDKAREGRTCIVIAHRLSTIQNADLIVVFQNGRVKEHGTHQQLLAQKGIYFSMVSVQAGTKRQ

Sequence of ATP-dependent translocase ABCB1 (Homo sapiens, UniProt P08183, G1114A) (P08183 whole entry G1114A): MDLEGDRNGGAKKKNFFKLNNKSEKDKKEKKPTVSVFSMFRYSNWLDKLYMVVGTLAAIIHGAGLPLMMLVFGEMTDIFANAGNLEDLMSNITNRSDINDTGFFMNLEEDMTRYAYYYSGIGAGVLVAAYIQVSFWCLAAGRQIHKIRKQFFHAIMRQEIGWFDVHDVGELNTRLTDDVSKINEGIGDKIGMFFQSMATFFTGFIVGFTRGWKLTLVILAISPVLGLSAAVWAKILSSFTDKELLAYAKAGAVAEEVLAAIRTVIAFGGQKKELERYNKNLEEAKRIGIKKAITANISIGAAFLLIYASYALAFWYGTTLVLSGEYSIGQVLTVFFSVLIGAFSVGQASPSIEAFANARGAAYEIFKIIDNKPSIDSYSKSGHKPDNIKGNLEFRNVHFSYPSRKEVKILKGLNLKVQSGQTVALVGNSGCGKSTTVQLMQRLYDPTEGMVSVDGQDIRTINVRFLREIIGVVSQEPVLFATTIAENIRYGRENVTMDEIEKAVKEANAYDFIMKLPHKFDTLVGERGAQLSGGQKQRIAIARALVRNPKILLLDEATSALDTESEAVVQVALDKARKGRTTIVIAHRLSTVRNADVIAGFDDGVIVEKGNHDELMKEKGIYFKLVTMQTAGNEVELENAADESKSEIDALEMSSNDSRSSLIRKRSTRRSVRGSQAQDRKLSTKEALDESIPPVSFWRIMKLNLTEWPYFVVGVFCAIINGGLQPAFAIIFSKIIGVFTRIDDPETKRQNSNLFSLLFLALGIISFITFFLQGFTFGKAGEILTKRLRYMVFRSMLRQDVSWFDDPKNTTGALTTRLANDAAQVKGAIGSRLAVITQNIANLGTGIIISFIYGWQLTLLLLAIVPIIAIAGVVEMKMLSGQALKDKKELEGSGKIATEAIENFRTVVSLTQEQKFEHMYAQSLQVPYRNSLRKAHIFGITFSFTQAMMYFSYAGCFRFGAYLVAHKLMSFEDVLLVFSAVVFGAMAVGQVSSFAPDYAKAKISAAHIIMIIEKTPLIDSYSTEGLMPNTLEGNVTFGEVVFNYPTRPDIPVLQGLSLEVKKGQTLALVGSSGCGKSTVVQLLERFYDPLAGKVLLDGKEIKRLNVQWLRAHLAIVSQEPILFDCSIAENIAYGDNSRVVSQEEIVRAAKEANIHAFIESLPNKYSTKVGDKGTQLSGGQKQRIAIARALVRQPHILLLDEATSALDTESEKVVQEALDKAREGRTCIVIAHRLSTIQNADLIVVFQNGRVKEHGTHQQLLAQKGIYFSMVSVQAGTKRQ
Sequence of ATP-dependent translocase ABCB1 (Homo sapiens, UniProt P08183, Q1193K) (P08183 whole entry Q1193K): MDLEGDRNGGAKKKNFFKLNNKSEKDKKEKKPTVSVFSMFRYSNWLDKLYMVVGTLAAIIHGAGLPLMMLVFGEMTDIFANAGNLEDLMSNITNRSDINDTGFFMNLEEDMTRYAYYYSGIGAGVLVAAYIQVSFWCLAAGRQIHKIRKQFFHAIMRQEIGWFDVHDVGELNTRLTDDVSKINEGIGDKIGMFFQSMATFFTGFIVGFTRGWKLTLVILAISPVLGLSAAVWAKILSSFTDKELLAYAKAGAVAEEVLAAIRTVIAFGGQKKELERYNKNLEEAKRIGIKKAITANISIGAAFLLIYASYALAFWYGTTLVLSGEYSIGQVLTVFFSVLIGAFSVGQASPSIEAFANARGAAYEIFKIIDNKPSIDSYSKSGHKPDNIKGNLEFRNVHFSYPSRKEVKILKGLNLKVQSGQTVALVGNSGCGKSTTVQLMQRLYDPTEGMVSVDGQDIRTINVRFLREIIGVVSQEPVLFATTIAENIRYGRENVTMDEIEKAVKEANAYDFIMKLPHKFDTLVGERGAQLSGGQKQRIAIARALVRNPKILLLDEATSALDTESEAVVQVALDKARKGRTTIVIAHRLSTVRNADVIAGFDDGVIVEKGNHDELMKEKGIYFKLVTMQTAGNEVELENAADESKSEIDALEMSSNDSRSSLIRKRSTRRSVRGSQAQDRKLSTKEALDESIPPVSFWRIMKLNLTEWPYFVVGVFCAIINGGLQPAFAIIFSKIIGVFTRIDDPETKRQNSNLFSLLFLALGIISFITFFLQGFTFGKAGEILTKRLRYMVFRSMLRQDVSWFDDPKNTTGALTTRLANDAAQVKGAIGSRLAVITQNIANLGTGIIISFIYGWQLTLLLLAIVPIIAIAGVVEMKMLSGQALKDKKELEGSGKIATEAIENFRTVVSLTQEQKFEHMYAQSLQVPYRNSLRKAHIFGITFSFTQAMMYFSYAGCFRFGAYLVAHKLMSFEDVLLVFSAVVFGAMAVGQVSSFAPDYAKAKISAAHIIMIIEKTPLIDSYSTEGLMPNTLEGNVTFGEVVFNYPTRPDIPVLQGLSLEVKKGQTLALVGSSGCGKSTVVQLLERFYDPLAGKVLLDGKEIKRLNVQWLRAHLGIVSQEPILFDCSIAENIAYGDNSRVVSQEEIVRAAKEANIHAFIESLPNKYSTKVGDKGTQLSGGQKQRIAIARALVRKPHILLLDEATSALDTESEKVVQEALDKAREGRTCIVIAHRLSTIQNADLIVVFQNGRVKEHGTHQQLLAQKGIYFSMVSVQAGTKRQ
Sequence of P-gp (ABCB1) Q1193N mutant (P08183 whole entry Q1193N): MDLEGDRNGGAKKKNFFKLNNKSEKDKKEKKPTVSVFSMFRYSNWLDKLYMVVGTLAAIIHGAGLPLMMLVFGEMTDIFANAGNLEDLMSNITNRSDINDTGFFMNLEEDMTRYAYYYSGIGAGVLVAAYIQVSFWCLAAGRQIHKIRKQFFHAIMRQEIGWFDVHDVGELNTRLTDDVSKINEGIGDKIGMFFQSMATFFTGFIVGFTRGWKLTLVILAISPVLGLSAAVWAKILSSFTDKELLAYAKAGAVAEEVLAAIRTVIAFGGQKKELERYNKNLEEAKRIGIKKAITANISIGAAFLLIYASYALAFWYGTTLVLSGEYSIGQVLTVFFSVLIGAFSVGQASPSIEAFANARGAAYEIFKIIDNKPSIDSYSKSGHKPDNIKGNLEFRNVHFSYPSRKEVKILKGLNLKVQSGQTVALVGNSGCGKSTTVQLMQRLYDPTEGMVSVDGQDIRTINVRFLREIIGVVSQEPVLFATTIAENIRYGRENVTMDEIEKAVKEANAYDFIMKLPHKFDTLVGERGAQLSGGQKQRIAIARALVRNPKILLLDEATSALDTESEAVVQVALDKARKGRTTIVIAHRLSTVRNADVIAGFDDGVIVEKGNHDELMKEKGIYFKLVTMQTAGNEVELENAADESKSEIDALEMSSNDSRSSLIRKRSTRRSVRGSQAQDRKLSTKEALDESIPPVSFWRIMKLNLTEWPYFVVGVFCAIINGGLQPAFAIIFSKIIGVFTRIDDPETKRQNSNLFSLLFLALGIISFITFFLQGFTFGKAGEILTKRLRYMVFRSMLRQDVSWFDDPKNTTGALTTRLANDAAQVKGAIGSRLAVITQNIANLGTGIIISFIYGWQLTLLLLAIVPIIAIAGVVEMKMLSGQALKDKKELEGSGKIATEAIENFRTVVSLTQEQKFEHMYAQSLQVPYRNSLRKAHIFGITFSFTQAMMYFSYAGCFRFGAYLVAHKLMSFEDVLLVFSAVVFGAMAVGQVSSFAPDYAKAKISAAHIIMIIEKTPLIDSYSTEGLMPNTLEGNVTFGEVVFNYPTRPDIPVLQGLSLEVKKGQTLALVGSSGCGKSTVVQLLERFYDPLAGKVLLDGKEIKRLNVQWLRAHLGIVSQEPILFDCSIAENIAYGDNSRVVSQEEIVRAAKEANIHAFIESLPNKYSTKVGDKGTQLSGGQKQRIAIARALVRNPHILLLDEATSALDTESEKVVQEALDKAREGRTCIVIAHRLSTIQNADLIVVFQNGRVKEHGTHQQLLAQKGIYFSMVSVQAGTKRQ

- Activity [1]: 87.8%
- fold change (FC) [2]: 1
- fold induction at 1 h, 20 µM [3]: 1.7
- fold change (FC) [4]: 15.6
- fold change (FC) [5]: 1.7
SMILES: O=c1cc(-c2ccc(OCCOCCNCc3ccccc3)cc2)oc2ccccc12
